# Reference: PubChem BioAssay AID1645848
# Conditions: buffer; pH 7.4; 6.0 h; 150.0 µM
row,SMILES,solubility kinetic [µg/mL]
1,Cc1ccc(-c2cc(C(=O)O)c3ccccc3n2)cc1,> 39
2,CC(=O)c1ccc(N2CCN(C(=O)c3ccc4c(c3)CC(=O)N4)CC2)cc1,> 54
3,Cc1cccc(NC(=S)N2CCN(c3cccc(C(F)(F)F)c3)CC2)c1,1.59
4,CCOc1ccc(CCNC(=O)c2cc3sccc3n2Cc2ccccc2)cc1OCC,< 1
5,CCNC(=O)Nc1ncc(-c2cc(-c3c(C)cc(OC)cc3C)nc(-c3cnccn3)n2)s1,< 1
6,CNc1nc(-c2ccc3c(N)n[nH]c3c2)cc(N2C[C@@H](C(=O)NC3CCCCC3)CC[C@H]2C)n1,15.2
7,COc1ccc(-n2c(C)c(C(C)=O)c3cc(OC(=O)COc4ccccc4)ccc32)cc1,< 1
8,Cc1nc(NC2CCCCC2)c2nc(-c3ccccc3)n(CCN(C)C)c2n1,> 56
9,O=C(Nc1ccccc1)C1CCN(c2nc(-c3ccc(Br)cc3)cs2)CC1,5.11
10,COc1ccc(-n2c(C)cc(-c3nnc4n3CCCCC4)c2C)cc1,31.9
11,Fc1cc(Nc2nc(-c3ccncc3)nc3ccccc23)ccc1N1CCNCC1,4.02
12,COc1ccnc(NC(=S)N2CCN(c3cc(C(F)(F)F)cc(C(F)(F)F)c3)CC2)c1,2.88
13,CCOc1ccc(CCN(C)C(=O)c2cc3sccc3n2Cc2ccccc2)cc1OCC,< 1
14,CCC(C)N(C)C(=O)c1cc2ccccc2c(-c2ccccc2Cl)n1 (stereo not drawn),38.6
15,CNc1ccc(Br)cc(C(=O)/C=C/c2ccc(OC)cc2OC)c1=O,1.94
16,CC(C)c1ccc(-n2ncc3c(=O)n(CC(=O)Nc4cc(F)ccc4Cl)cnc32)cc1,< 1
17,COc1ccc(CNC(=O)Cn2nc3c(cc2=O)CCCC3)cc1,> 48
18,COc1cccc(CN2CCCC(c3nc(-c4ccncc4)ncc3-c3ccccc3)C2)c1O (stereo not drawn),4.29
19,CCO.Nc1nc(N)c2cc(Sc3ccc4ccccc4c3)ccc2n1,< 1
20,COc1ccc(-n2nc(C3CCN([S+](=O)([O-])c4c(C)noc4C)CC3)[nH]c2=O)cc1,< 1
21,CC(C)c1ccccc1-c1ncc(F)c(NC2(c3ccc(-c4cccnc4)cc3)CC2)n1,< 1
22,O=[S+]([O-])(Nc1ccc(N2CCNCC2)cc1)c1ccc(NCc2cccc(Cl)c2O)cc1,52.4
23,O=C(NCCCn1ccnc1)c1ccc(-c2ncc3cnc(-c4cccc(F)c4)cn23)cc1,32.5
24,CCc1ccc(NC(=O)[C@H](Cc2c[nH]c3ccccc23)NC(=O)[C@@H]2Cc3ccccc3CN2)cc1,3.49
25,CN[C@@H]1C[C@@H](c2ccc(Cl)c(Cl)c2)c2ccccc21,> 43

row,SMILES,solubility kinetic [µg/mL]
1,Cc1cc(NC(=S)N2CCN(c3cccc(C(F)(F)F)c3)CC2)nc2ccccc12,4.33
2,O=C(Nc1cc(Cc2ccccc2)ccn1)c1ccc(-c2cccc([N+](=O)[O-])c2)o1,< 1
3,CC1CC(C)(C)N(C(=O)CN2C(=O)c3ccccc3C2=O)c2ccccc21 (stereo not drawn),7.25
4,CN1CCN(c2ccc(Nc3nn4c(=O)c5ccccc5nc4s3)cc2)CC1,> 58
5,Clc1ccccc1-c1nnc2sc(-c3ccc4c(c3)OCO4)nn12,< 1
6,CCOc1ccc(CCNC(=O)c2cc3sccc3n2Cc2ccccc2)c(F)c1OCC,< 1
7,COc1cccc(CNc2ccc(S(=O)(=O)Nc3cccc4ccccc34)cc2)c1O,< 1
8,CCc1ccc(-n2nnc(-c3nsc(NC(=O)c4ccccc4Cl)n3)c2C)cc1,< 1
9,Cc1cc(Cl)ccc1COc1ccnn1-c1cc(C(=O)O)ccn1,> 51
10,Cc1ccc(S(=O)(=O)n2cc(C(=O)Nc3nc(-c4ccccc4)cs3)c3ccccc32)cc1,2.2
11,CC(=O)c1c(C)[nH]c(C(=O)Nc2cccc([S+](=O)([O-])N3CC[C@@H](F)C3)c2)c1C,23.3
12,Cc1ccc(-n2ncc3c(Nc4cccc(C(=O)O)c4)ncnc32)cc1,> 51
13,COc1ccc(-n2nc(C3CCCN(C(=O)c4cccc(OC)c4)C3)[nH]c2=O)cc1 (stereo not drawn),22.4
14,Fc1cc(Nc2nc(-c3ccncc3)nc3ccccc23)ccc1-c1cc(F)c(F)c(F)c1,< 1
15,Cc1ccc(S(=O)(=O)Nc2ccc(C(=O)Nc3nc(-c4ccc(Cl)cc4)cs3)cc2)cc1,< 1
16,NC(=O)C1CCN(c2nc(-c3cc4ccccc4o3)cs2)CC1,> 48
17,O=C(Nc1ccc([S+](=O)([O-])Nc2nccs2)cc1)c1ccccn1,7.05
18,NC(=O)C1CCN(c2nc(-c3cccc(Cl)c3)cs2)CC1,10.6
19,O=C(Nc1ccc(S(=O)(=O)Nc2nc(-c3ccccc3)cs2)cc1)c1ccc2ccccc2c1,< 1
20,Nc1ncnc2c1c(-c1ccc(Oc3ccccc3)cc1)cn2C1CCCC1,< 1
21,O=C1Nc2cccc(Cl)c2/C1=C\c1cc(Cl)c(O)c(Cl)c1,< 1
22,COc1ccc(-n2c(C)c(C(C)=O)c3ccccc32)cc1,< 1
23,CCN(CC)C(=O)c1coc(COc2ccc3c(c2)C(c2cccc(F)c2)N(C(=O)C(C)C)CC3)n1 (stereo not drawn),< 1
24,Cc1cc(C)nc(NC(=S)N2CCN(c3ccc(Cl)cc3[N+](=O)[O-])CC2)c1,3.08
25,CCOc1ccc(CCNC(=O)c2cc3sccc3n2Cc2ccc(Cl)c(F)c2)cc1OCC,< 1

row,SMILES,solubility kinetic [µg/mL]
1,OC1(CN2CCN(c3ccc(F)c(Cl)c3)CC2)CCCNC1 (stereo not drawn),> 48
2,COc1cc(-c2nc(-c3ccccc3)c(-c3cccs3)[nH]2)cc(OC)c1O,< 1
3,COc1ccccc1N1CCN(CCN(C(=O)c2ccc(F)cc2)c2ccccn2)CC1,> 64
4,CCOC(=O)c1ccnc(CNCC(=O)N(CC)CCN(C)C)c1,> 50
5,CCOc1ccc(C2c3c(oc4ccc(C)cc4c3=O)C(=O)N2CCCN(C)C)cc1 (stereo not drawn),> 62
6,CCn1cc(CNC(=O)c2cc(-c3ccc(C)cc3)nc3ccc(Br)cc23)c(C)n1,< 1
7,CCCNc1oc(-c2cccc3ccccc23)nc1C#N,< 1
8,CC(=O)N1CCN(c2ccc(OCc3nn(C)c(C)c3-c3cccc4c(CCCOc5cccc6ccccc56)c(C(=O)O)n(Cc5cccnc5)c34)cc2)CC1,> 100
9,CCOc1ccc(C2C(C(=O)Nc3ccccc3OC)=C(C)Nc3c(C(=O)Nc4cccc(C)c4)cnn32)cc1 (stereo not drawn),< 1
10,Cc1ccc(S(=O)(=O)Nc2cncc(C(=O)Nc3nc(-c4ccccc4)cs3)c2)cc1,< 1
11,Cc1ccc(C)c(NC2=C(c3ccc(C(F)(F)F)cc3)C(=O)c3ccccc32)c1,< 1
12,Cc1n[nH]c(C)c1CCc1nc2c3ccccc3nc(SCC(=O)Nc3ccc(F)cc3)n2n1,< 1
13,CC[C@@](C)(Nc1ccnc(-c2c[nH]c3ncccc23)n1)C(=O)NCC(F)(F)F,> 58
14,CCc1ccc(C2C(C(=O)Nc3ccccc3OC)=C(C)Nc3c(C(=O)Nc4ccc(C)cc4)cnn32)cc1 (stereo not drawn),5.74
15,CC(C)c1ccccc1-c1ncc(F)c(NCc2ccc(-c3cccnc3)s2)n1,0.132
16,COc1cccc(NCCC2(c3ccccc3)CC(C)(C)OC(C)(C)C2)c1,< 1
17,COc1ccccc1NC(=O)C1=C(C)Nc2c(C(=O)Nc3cccc(C)c3)cnn2C1c1ccccc1Cl (stereo not drawn),< 1
18,CCOc1cc(CCNC(=O)c2cc3sccc3n2Cc2ccccc2)cc(F)c1OCC,< 1
19,CN1C(=O)c2ccccc2[S@](=O)c2ccc(C(=O)NCc3ccc(Cl)cc3)cc21,4.37
20,Cc1ccc(-c2cc3c(nn2)-c2ccccc2C3=O)cc1,< 1
21,CCNC(=O)c1ccc(-c2ccc3ncnc(NCC4CCCO4)c3c2)o1 (stereo not drawn),25
22,O=C(c1ccco1)N1CCN(c2nc(-c3ccc(Br)cc3)cs2)CC1,2.3
23,Cc1ccc(C(=O)Nc2nc(-c3ccccn3)cs2)cc1S(=O)(=O)N1CCOCC1,7.21
24,Nc1c(C(=O)Nc2ccc(Cl)cc2)sc2nc3c(cc12)N1CCC3CC1,< 1
25,c1cc(-c2cc(-c3ccncc3)c3cncn3c2)c2[nH]ncc2c1,2.43

row,SMILES,solubility kinetic [µg/mL]
1,CC1CCc2ccc(F)cc2N1S(=O)(=O)c1cccs1 (stereo not drawn),3.12
2,O=C(/C=C/c1cn(CC(O)CN2CCCCCC2)c2ccccc12)c1ccc(Br)cc1 (stereo not drawn),< 1
3,Cc1ccc2oc3c(c(=O)c2c1)C(c1ccc(O)cc1)N(CCCN(C)C)C3=O (stereo not drawn),> 58
4,Cc1ccc(NS(=O)(=O)c2ccc3c(c2)NC(=O)CO3)cc1C,7.82
5,O=C(Nc1ccc([N+](=O)[O-])cc1Cl)c1cc(Cl)ccc1O,1.14
6,Cc1nnc2c3ccccc3nc(N3CCN(c4ccccc4)CC3)n12,< 1
7,CC(=O)c1ccc(N2CCN(S(=O)(=O)c3cc4c(cc3Cl)NC(=O)C4)CC2)cc1,1.16
8,Fc1cc(Nc2nc(-c3ccncc3)nc3ccccc23)ccc1C(F)(F)F,< 1
9,COc1cc(Nc2nc(-c3ccncc3)nc3ccccc23)ccc1Cl,< 1
10,CCC[C@H](NC(=O)/C(C#N)=C/c1cccc(Br)n1)c1ccccc1,< 1
11,O=S(=O)(Nc1cccc2ccccc12)c1ccc(NCc2cccc(Cl)c2O)cc1,< 1
12,Cc1sc(NC(=O)Cc2ccc3c(c2)OCO3)nc1-c1ccc2c(c1)CCN2C,1.07
13,CC(C)Oc1cccc(-c2cnc(N3CCC(C(N)=O)CC3)s2)c1,1.43
14,O=S(=O)(Nc1nccs1)c1ccc(NCc2cc(F)ccc2O)cc1,> 56
15,O=C(CSc1nc(-c2ccc(F)cc2)[nH]c1-c1ccc(F)cc1)Nc1ccc2c(c1)OCCO2,< 1
16,C[C@H]1CN(C(=O)c2nn(C)c3ccccc23)C[C@@H]1c1nc(-c2cccnc2)no1,19.7
17,CCOC(=O)c1cc(-c2ccco2)nc2c1c(C)nn2CCC#N,9.9
18,O=C(Cc1ccc(O)cc1)N1CC(CNc2ccccc2)C2(C1)CN(c1ccccc1)C2 (stereo not drawn),< 1
19,CCC(CC)c1cc([C@H]2CN3CC[C@H]2C[C@@H]3CNC(=O)COc2ccccc2)nc(-c2ccncc2)n1,> 74
20,O=C(Nc1cccc(C(F)(F)F)c1)c1cc2nc(-c3ccccc3)cc(C(F)(F)F)n2n1,< 1
21,CN(C(=O)c1cn2c(-c3ccc(C(F)(F)F)cc3)cnc2cn1)c1ccc(C#N)cc1,3.56
22,COc1cccc(C(=O)NCCSc2c(-c3ccc(F)cc3)[nH]c3ccccc23)c1OC,< 1
23,Cc1c(-c2nsc(NC(=O)c3cccc(Cl)c3)n2)nnn1-c1ccccc1C(F)(F)F,< 1
